Values quoted from earlier work as cited in patent US10220017B2, “Liquid pharmaceutical compositions comprising SGLT-2 inhibitors” (Boehringer Ingelheim Vetmedica GmbH, priority 2015, dated 2019).

conditions: n-octanol/water; values taken from http://www.chemicalize.org/

SMILES	log10P
OCC(O)CO [propane-1,2,3-triol]	−1.84
CCO [ethanol]	−0.16
CC(O)CO (stereo not drawn) [propane-1,2-diol]	−0.79
